pEC50: −log10 of the molar value. Counter-ions that a name gives are not always drawn. Like-named read-outs stand apart in the source and are kept apart here.
How the values were obtained:
human GLP-1R [1] = target: human GLP-1R (Homo sapiens (Human), UniProt P43220, L260F); experiment: CHO GLP-1R Clone C6—Assay 2: HTRF cAMP cell-based functional agonist assay (low GLP-1R density); details: for Emax: read-out: Assay 2 Emax (%); for pEC50: CHO GLP-1R Clone C6, cAMP HTRF, geometric mean
human GLP-1R [2] = target: human GLP-1R (Homo sapiens, UniProt P43220, G168S); experiment: CHO GLP-1R Clone H6—Assay 1: HTRF cAMP cell-based functional agonist assay (high GLP-1R density); details: for pEC50: read-out: Assay 1 EC50
human GLP-1R (Homo sapiens, UniProt P43220, G168S), sequence (P43220 24-463 G168S limits assumed): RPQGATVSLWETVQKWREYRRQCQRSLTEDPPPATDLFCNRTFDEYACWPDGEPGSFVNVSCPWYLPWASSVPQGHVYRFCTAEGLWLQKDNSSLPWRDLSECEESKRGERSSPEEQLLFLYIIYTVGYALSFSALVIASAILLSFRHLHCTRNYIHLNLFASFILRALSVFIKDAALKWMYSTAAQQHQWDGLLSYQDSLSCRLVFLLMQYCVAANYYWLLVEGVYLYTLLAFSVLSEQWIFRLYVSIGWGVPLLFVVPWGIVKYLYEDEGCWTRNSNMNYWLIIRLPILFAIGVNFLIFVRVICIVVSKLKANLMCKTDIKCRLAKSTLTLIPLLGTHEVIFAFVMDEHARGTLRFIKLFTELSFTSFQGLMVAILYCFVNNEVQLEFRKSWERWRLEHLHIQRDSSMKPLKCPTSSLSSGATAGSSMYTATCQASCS

[3] = CHO GLP-1R Clone C6, relative to saturating concentration of full agonist GLP-1 (1 μM), arithmetic mean
[4] = read-out: Assay 1 Emax (%), CHO GLP-1R Clone H6, relative to saturating concentration of full agonist GLP-1 (1 μM), arithmetic mean
[5] = CHO GLP-1R Clone H6, cAMP HTRF, geometric mean

human GLP-1R (Homo sapiens (Human), UniProt P43220, L260F), sequence (P43220 24-463 L260F): as the sequence (P43220 24-463 G168S limits assumed) above, with S145G, L237F counted along it

## [2H]C([2H])(Oc1cccc(C2CCN(Cc3nc4ccc(C(=O)O)cc4n3C[C@@H]3CCO3)CC2)n1)c1ccc(C#N)cc1F [Example 1A-09, 2-{[4-(6-{[(4-cyano-2-fluorophenyl)(methyl-d2)]oxy}pyridin-2-yl)piperidin-1-yl]methyl}-1-[(2S)-oxetan-2-ylmethyl]-1H-benzimidazole-6-carboxylic acid]
Human GLP-1R [1]; [3]
  Emax: 120%
Human GLP-1R [2]; [4]
  Emax: 92%

## O=C(O)c1ccc2nc(CN3CCC(c4cccc(OCc5ccc(Cl)cc5F)n4)CC3)n(Cc3cc[nH]n3)c2c1 [Example 11A-24, 2-[(4-{6-[(4-chloro-2-fluorobenzyl)oxy]pyridin-2-yl}piperidin-1-yl)methyl]-1-(1H-pyrazol-3-ylmethyl)-1H-benzimidazole-6-carboxylic acid]
Human GLP-1R [1]
  pEC50: 6.35
Human GLP-1R [1]; [3]
  Emax: 89%
Human GLP-1R [2]; [5]
  pEC50: 7.55
Human GLP-1R [2]; [4]
  Emax: 80%

## Cn1c(CN2CCC(c3cccc(OCc4ccc(Cl)cc4F)n3)CC2)nc2ccc(C(=O)O)nc21 [Example 2A-01, 2-((4-(6-((4-Chloro-2-fluorobenzyl)oxy)pyridin-2-yl)piperidin-1-yl)methyl)-3-methyl-3H-imidazo[4,5-b]pyridine-5-carboxylic acid hydrochloride]
Human GLP-1R [1]
  pEC50: 5.74
  Emax: 89%
Human GLP-1R [2]; [5]
  pEC50: 7.05
Human GLP-1R [2]; read-out: Assay 1 Emax (%)
  Emax: 76%

## O=C(O)c1cc2c(cn1)nc(CN1CCC(c3cccc(OCc4ccc(Cl)cc4F)n3)CC1)n2C[C@@H]1CCO1 [Example 2A-05, 2-[(4-{6-[(4-chloro-2-fluorobenzyl)oxy]pyridin-2-yl}piperidin-1-yl)methyl]-1-[(2S)-oxetan-2-ylmethyl]-1H-imidazo[4,5-c]pyridine-6-carboxylic acid]
Human GLP-1R [1]
  pEC50: 6.82
Human GLP-1R [1]; [3]
  Emax: 84%
Human GLP-1R [2]; [5]
  pEC50: 8.22
Human GLP-1R [2]; [4]
  Emax: 73%

## O=C(O)c1ccc2nc(CN3CCC(c4cccc(OCc5ccc(Cl)cc5F)n4)CC3)n(Cc3cn[nH]c3)c2c1 [Example 11A-15, 2-[(4-{6-[(4-chloro-2-fluorobenzyl)oxy]pyridin-2-yl}piperidin-1-yl)methyl]-1-(1H-pyrazol-4-ylmethyl)-1H-benzimidazole-6-carboxylic acid]
Human GLP-1R [1]
  pEC50: 7.03
Human GLP-1R [1]; [3]
  Emax: 92%
Human GLP-1R [2]; [5]
  pEC50: 8.03
Human GLP-1R [2]; [4]
  Emax: 69%

## O=C(O)c1ccc2nc(CN3CCC(c4cccc(OCc5ccc(F)cc5F)n4)CC3)n(Cc3cnco3)c2c1 [Example 10A-44, 2-[(4-{6-[(2,4-difluorobenzyl)oxy]pyridin-2-yl}piperidin-1-yl)methyl]-1-(1,3-oxazol-5-ylmethyl)-1H-benzimidazole-6-carboxylic acid]
Human GLP-1R [1]
  pEC50: 7.00
Human GLP-1R [1]; [3]
  Emax: 81%
Human GLP-1R [2]; [5]
  pEC50: 8.22
Human GLP-1R [2]; [4]
  Emax: 73%

## CCn1cncc1Cn1c(CN2CCN(c3cccc(OCc4ccc(C#N)cc4F)n3)CC2)nc2ccc(C(=O)O)cc21 [Example 10A-35, 2-[(4-{6-[(4-cyano-2-fluorobenzyl)oxy]pyridin-2-yl}piperazin-1-yl)methyl]-1-[(1-ethyl-1H-imidazol-5-yl)methyl]-1H-benzimidazole-6-carboxylic acid]
Human GLP-1R [1]
  pEC50: 8.42
Human GLP-1R [1]; [3]
  Emax: 93%
Human GLP-1R [2]; [5]
  pEC50: 9.52
Human GLP-1R [2]; [4]
  Emax: 93%

## Cn1cncc1Cn1c(CN2CCC(c3cccc(OCc4ccc(Cl)cc4F)n3)CC2)nc2ccc(C(=O)O)cc21 [Example 11A-70, 2-[(4-{6-[(4-chloro-2-fluorobenzyl)oxy]pyridin-2-yl}piperidin-1-yl)methyl]-1-[(1-methyl-1H-imidazol-5-yl)methyl]-1H-benzimidazole-6-carboxylic acid]
Human GLP-1R [1]
  pEC50: 8.00
Human GLP-1R [1]; [3]
  Emax: 89%
Human GLP-1R [2]; [5]
  pEC50: 9.15
Human GLP-1R [2]; [4]
  Emax: 86%

## CCn1cncc1Cn1c(CN2CCN(c3cccc(OCc4ccc(C#N)cc4F)n3)C[C@@H]2C)nc2ccc(C(=O)O)cc21 [Example 10A-63]
Human GLP-1R [1]
  pEC50: 7.96
Human GLP-1R [1]; [3]
  Emax: 110%
Human GLP-1R [2]; [5]
  pEC50: 9.24
Human GLP-1R [2]; [4]
  Emax: 86%

## COCCn1c(CN2CCN(c3nc(OCc4ccc(Cl)cc4F)ccc3F)C[C@@H]2C)nc2ccc(C(=O)O)cc21 [Example 1A-06, 2-{[(2S)-4-{6-[(4-chloro-2-fluorobenzyl)oxy]-3-fluoropyridin-2-yl}-2-methylpiperazin-1-yl]methyl}-1-(2-methoxyethyl)-1H-benzimidazole-6-carboxylic acid]
Human GLP-1R [1]
  pEC50: 6.46
Human GLP-1R [1]; [3]
  Emax: 70%
Human GLP-1R [2]; [5]
  pEC50: 7.54
Human GLP-1R [2]; [4]
  Emax: 84%

## CCn1cncc1Cn1c(CN2CCN(c3cccc(OCc4ccc(Cl)cc4F)n3)C[C@@H]2C)nc2ccc(C(=O)O)cc21 [Example 10A-67, 2-{[(2S)-4-{6-[(4-chloro-2-fluorobenzyl)oxy]pyridin-2-yl}-2-methylpiperazin-1-yl]methyl}-1-[(1-ethyl-1H-imidazol-5-yl)methyl]-1H-benzimidazole-6-carboxylic acid]
Human GLP-1R [1]
  pEC50: 8.17
Human GLP-1R [1]; [3]
  Emax: 93%
Human GLP-1R [2]; [5]
  pEC50: 9.23
Human GLP-1R [2]; [4]
  Emax: 83%

## C[C@H]1CN(c2cccc(OCc3ccc(C#N)cc3F)n2)CCN1Cc1nc2ccc(C(=O)O)cc2n1Cc1cocn1 [Example 10A-14]
Human GLP-1R [1]
  pEC50: 6.66
Human GLP-1R [1]; [3]
  Emax: 93%
Human GLP-1R [2]; [5]
  pEC50: 8.09
Human GLP-1R [2]; [4]
  Emax: 74%

## N#Cc1ccc(COc2cccc(C3CCN(Cc4nc5ccc(C(=O)O)cc5n4C[C@@H]4CCCO4)CC3)n2)c(F)c1 [Example 1A-21, 2-[(4-{6-[(4-cyano-2-fluorobenzyl)oxy]pyridin-2-yl}piperidin-1-yl)methyl]-1-[(2S)-tetrahydrofuran-2-ylmethyl]-1H-benzimidazole-6-carboxylic acid]
Human GLP-1R [1]
  pEC50: 7.12
Human GLP-1R [1]; [3]
  Emax: 83%
Human GLP-1R [2]; [5]
  pEC50: 8.31
Human GLP-1R [2]; [4]
  Emax: 77%

## N#Cc1ccc(COc2nc(C3CCN(Cc4nc5ccc(C(=O)O)cc5n4C[C@@H]4CCO4)CC3)ccc2F)c(F)c1 [Example 10A-54, 2-[(4-{6-[(4-cyano-2-fluorobenzyl)oxy]-5-fluoropyridin-2-yl}piperidin-1-yl)methyl]-1-[(2S)-oxetan-2-ylmethyl]-1H-benzimidazole-6-carboxylic acid]
Human GLP-1R [1]
  pEC50: 7.96
Human GLP-1R [1]; [3]
  Emax: 100%
Human GLP-1R [2]; [5]
  pEC50: 9.15
Human GLP-1R [2]; [4]
  Emax: 81%

## C[C@H]1CN(c2cccc(OCc3ccc(C#N)cc3)n2)CCN1Cc1nc2ccc(C(=O)O)cc2n1CC1CCCO1 (single isomer, unassigned; diastereomer 2) [Example 14A-08]
Human GLP-1R [1]
  pEC50: 6.42
Human GLP-1R [2]; [5]
  pEC50: 7.72

## O=C(O)c1ccc2nc(CN3CCC(c4cccc(OCc5ccc(Cl)cc5F)n4)CC3)n(Cc3c[nH]nn3)c2c1 [Example 11A-23, 2-[(4-{6-[(4-chloro-2-fluorobenzyl)oxy]pyridin-2-yl}piperidin-1-yl)methyl]-1-(1H-1,2,3-triazol-4-ylmethyl)-1H-benzimidazole-6-carboxylic acid]
Human GLP-1R [1]
  pEC50: 6.48
Human GLP-1R [1]; [3]
  Emax: 96%
Human GLP-1R [2]; [5]
  pEC50: 7.60
Human GLP-1R [2]; [4]
  Emax: 78%

## Cn1cncc1Cn1c(CN2CCN(c3cccc(OCc4ccc(C#N)cc4F)n3)CC2)nc2ccc(C(=O)O)cc21 [Example 10A-37, 2-[(4-{6-[(4-cyano-2-fluorobenzyl)oxy]pyridin-2-yl}piperazin-1-yl)methyl]-1-[(1-methyl-1H-imidazol-5-yl)methyl]-1H-benzimidazole-6-carboxylic acid]
Human GLP-1R [1]
  pEC50: 7.64
Human GLP-1R [1]; [3]
  Emax: 110%
Human GLP-1R [2]; [5]
  pEC50: 8.47
Human GLP-1R [2]; [4]
  Emax: 86%

## COCCn1c(CN2CCN(c3cccc(OCc4ccc(C#N)cc4)n3)CC2)nc2ccc(C(=O)O)cc21 [Example 1A-11, 2-[(4-{6-[(4-cyanobenzyl)oxy]pyridin-2-yl}piperazin-1-yl)methyl]-1-(2-methoxyethyl)-1H-benzimidazole-6-carboxylic acid]
Human GLP-1R [1]
  pEC50: 6.28
Human GLP-1R [1]; [3]
  Emax: 97%
Human GLP-1R [2]; [5]
  pEC50: 7.72
Human GLP-1R [2]; [4]
  Emax: 76%

## C[C@H]1CN(c2cccc(OCc3ccc(C#N)cc3)n2)CCN1Cc1nc2ccc(C(=O)O)cc2n1CC1CCCO1 (single isomer, unassigned; diastereomer 1) [Example 14A-07]
Human GLP-1R [1]
  pEC50: 7.26
Human GLP-1R [2]; CHO GLP-1R Clone H6, relative to saturating concentration of full agonist GLP-1 (1 μM), arithmetic mean
  Assay 1 Emax (%): 63%
Human GLP-1R [2]; [5]
  pEC50: 8.72

## O=C(O)c1ccc2nc(CN3CCC(c4cccc(OCc5ccc(Cl)cc5F)n4)CC3)n([C@H]3CCOC3)c2c1 [Example 10A-71]
Human GLP-1R [1]
  pEC50: 5.24
Human GLP-1R [1]; [3]
  Emax: 85%
Human GLP-1R [2]; [5]
  pEC50: 6.72
Human GLP-1R [2]; [4]
  Emax: 62%

## COCCn1c(CN2CC[C@@H](c3cccc(OCc4ccc(Cl)cc4F)n3)[C@@H](C)C2)nc2ccc(C(=O)O)cc21 (racemic) [Example 1A-25, rac-2-{[(3R,4R)-4-{6-[(4-chloro-2-fluorobenzyl)oxy]pyridin-2-yl}-3-methylpiperidin-1-yl]methyl}-1-(2-methoxyethyl)-1H-benzimidazole-6-carboxylic acid]
Human GLP-1R [1]
  pEC50: 6.00
Human GLP-1R [1]; [3]
  Emax: 84%
Human GLP-1R [2]; Assay 1 EC50 (nM), CHO GLP-1R Clone H6, cAMP HTRF, geometric mean
  EC50: 45 nM
Human GLP-1R [2]; [4]
  Emax: 65%

## COCCn1cnnc1Cn1c(CN2CCC(c3cccc(OCc4ccc(Cl)cc4F)n3)CC2)nc2ccc(C(=O)O)cc21 [Example 11A-19, 2-[(4-{6-[(4-chloro-2-fluorobenzyl)oxy]pyridin-2-yl}piperidin-1-yl)methyl]-1-{[4-(2-methoxyethyl)-4H-1,2,4-triazol-3-yl]methyl}-1H-benzimidazole-6-carboxylic acid]
Human GLP-1R [1]
  pEC50: 6.64
Human GLP-1R [1]; [3]
  Emax: 110%
Human GLP-1R [2]; [5]
  pEC50: 7.82
Human GLP-1R [2]; [4]
  Emax: 83%

## Cn1c(CN2CCC(c3cccc(OCc4ccc(Cl)cc4F)n3)CC2)nc2ccc(C(=O)O)cc21 [Example 1A-01, 2-((4-(6-((4-Chloro-2-fluorobenzyl)oxy)pyridin-2-yl)piperidin-1-yl)methyl)-1-methyl-1H-benzo[d]imidazole-6-carboxylic acid hydrochloride]
Human GLP-1R [1]
  pEC50: 6.04
Human GLP-1R [1]; [3]
  Emax: 94%
Human GLP-1R [2]; [5]
  pEC50: 7.09
Human GLP-1R [2]; [4]
  Emax: 77%

Source: patent US10208019B2, “GLP-1 receptor agonists and uses thereof” (Pfizer Inc., priority 2016, dated 2019)
